Data on one compound can be found in ChEMBL document CHEMBL6103551 (Bioorg Med Chem Lett, 2025).

The conditions of the data set: mouse, microsomes, 1 h.

Description: Metabolic stability in mouse liver microsomes assessed as reduction in NADPH incubated for 60 mins by fluorescence based assay relative to control

For `CCOC(=O)N1CCC(NC(=S)Nc2cc(Cl)cc(Cl)c2)CC1`, the Stability result was “Stable”.
